{
  "source": "paper PMC9112005",
  "about": "“Sas20 is a highly flexible starch-binding protein in the Ruminococcus bromii cell-surface amylosome” (The Journal of Biological Chemistry, 2022)",
  "key": {"Sas20d1 Y60A": {"molecular_target": "Sas20d1 Y60A", "test": "ITC binding to Sas20d1 Y60A mutant", "parameters": "species or system Ruminococcus bromii", "details": "25 °C, one-site binding model, average of three replicates"}, "Sas20d1 W72A": {"molecular_target": "Sas20d1 W72A", "test": "ITC binding to Sas20d1 W72A mutant", "parameters": "species or system Ruminococcus bromii", "details": "25 °C, one-site binding model, average of three replicates"}, "Sas20d2 W329A": {"test_system": "Sas20d2 W329A", "test": "ITC binding to Sas20d2 W329A mutant", "parameters": "species or system Ruminococcus bromii"}, "Sas20d2 W375A": {"test_system": "Sas20d2 W375A", "test": "ITC binding to Sas20d2 W375A mutant", "parameters": "species or system Ruminococcus bromii"}, "Sas20d2 W440A": {"test_system": "Sas20d2 W440A", "test": "ITC binding to Sas20d2 W440A mutant", "parameters": "species or system Ruminococcus bromii"}, "Sas20d2 W481A": {"molecular_target": "Sas20d2 W481A", "test": "ITC binding to Sas20d2 W481A mutant", "parameters": "species or system Ruminococcus bromii", "details": "25 °C, one-site binding model, average of three replicates"}, "Sas20d1": {"molecular_target": "Sas20d1 (Ruminococcus bromii, UniProt Z9RYL2BLZ4)", "sequence (Z9RYL2BLZ4 14-251 limits assumed)": "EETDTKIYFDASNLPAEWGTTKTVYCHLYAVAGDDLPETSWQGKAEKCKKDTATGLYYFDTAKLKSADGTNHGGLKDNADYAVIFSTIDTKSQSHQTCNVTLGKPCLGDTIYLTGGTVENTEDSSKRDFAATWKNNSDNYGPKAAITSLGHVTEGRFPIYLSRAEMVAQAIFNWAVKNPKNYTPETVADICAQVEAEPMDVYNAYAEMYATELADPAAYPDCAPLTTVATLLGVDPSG", "test": "ITC binding to Sas20d1", "details": "average of three replicates; for Kd / Kd (μM): 25 °C, 50 mM Hepes pH 7.0, one-site binding model, polysaccharides: based on concentration of binding sites; for N (binding sites): one-site binding model", "description": "(§1) ITC measurements were carried out using a TA Instruments Nano ITC. Proteins were dialyzed into 50 mM Hepes (pH = 7.0), and oligosaccharides were prepared using the dialysis buffer. […] For polysaccharide titrations, the concentration of ligand was adjusted to fit a one-site binding model with n = 1; this sets the concentration of the ligand to the concentration of binding sites for the protein within the polysaccharide, as previously described ([77]). The solution was stirred at 250 rpm, and the resulting heat of reaction was measured. Data were analyzed using the TA Instruments NanoAnalyze software package fitting to a one-site binding model."}, "Sas20d2": {"molecular_target": "Sas20d2 (Ruminococcus bromii, UniProt A0A2N0UW79)", "sequence (A0A2N0UW79 entry or part of it)": "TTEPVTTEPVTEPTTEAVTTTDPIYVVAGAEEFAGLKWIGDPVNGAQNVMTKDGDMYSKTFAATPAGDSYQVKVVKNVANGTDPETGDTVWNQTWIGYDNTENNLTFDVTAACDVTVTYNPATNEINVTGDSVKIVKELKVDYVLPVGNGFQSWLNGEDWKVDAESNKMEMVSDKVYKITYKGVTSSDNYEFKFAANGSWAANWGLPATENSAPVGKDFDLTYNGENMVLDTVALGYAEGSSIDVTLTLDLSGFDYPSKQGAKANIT", "test": "ITC binding to Sas20d2", "details": "for N (binding sites): one-site binding model", "description": "as §1"}, "Sca5X25-2": {"molecular_target": "Sca5X25-2 (Ruminococcus bromii, UniProt Z9P1N1M2Z2)", "sequence (Z9P1N1M2Z2 14-256 limits assumed)": "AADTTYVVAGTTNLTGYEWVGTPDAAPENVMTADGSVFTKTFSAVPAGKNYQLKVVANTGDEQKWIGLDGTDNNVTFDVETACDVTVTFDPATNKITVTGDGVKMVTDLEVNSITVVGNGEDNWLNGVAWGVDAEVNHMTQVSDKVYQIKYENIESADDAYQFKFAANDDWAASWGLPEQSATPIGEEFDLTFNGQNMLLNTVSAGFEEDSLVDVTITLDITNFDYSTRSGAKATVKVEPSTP", "test": "ITC binding to Sca5X25-2", "description": "as §1"}, "Sca5X25-2a": {"molecular_target": "Sca5X25-2a", "sequence (Z9P1N1M2Z2 13-117 limits assumed)": "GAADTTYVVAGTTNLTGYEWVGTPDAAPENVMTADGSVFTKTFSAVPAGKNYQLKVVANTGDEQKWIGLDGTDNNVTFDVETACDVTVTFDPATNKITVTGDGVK", "test": "ITC binding to Sca5X25-2a", "details": "25 °C, one-site binding model, average of three replicates", "description": "as §1"}, "Sca5X25-2b": {"molecular_target": "Sca5X25-2b", "sequence (Z9P1N1M2Z2 118-256 limits assumed)": "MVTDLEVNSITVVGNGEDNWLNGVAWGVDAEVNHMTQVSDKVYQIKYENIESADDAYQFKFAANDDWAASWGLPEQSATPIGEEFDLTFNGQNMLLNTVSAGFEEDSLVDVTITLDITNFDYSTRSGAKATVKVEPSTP", "test": "ITC binding to Sca5X25-2b", "details": "25 °C, one-site binding model, average of three replicates", "description": "ITC measurements were carried out using a TA Instruments Nano ITC. Proteins were dialyzed into 50 mM Hepes (pH = 7.0), and oligosaccharides were prepared using the dialysis buffer. […] The solution was stirred at 250 rpm, and the resulting heat of reaction was measured. Data were analyzed using the TA Instruments NanoAnalyze software package fitting to a one-site binding model."}, "Sas20d1tr": {"molecular_target": "Sas20d1tr (Ruminococcus bromii, UniProt Z9RYL2BLZ4)", "sequence (Z9RYL2BLZ4 14-173 limits assumed)": "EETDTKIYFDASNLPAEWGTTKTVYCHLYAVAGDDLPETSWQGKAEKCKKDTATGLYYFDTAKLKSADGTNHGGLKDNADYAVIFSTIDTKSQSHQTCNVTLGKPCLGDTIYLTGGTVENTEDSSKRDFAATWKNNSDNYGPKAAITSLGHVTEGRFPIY", "test": "ITC binding to truncated Sas20d1 lacking C-terminal helices", "description": "as §1"}, "[1]": {"details": "25 °C, one-site binding model, average of three replicates"}, "[2]": {"details": "Kd (μM), 25 °C, one-site binding model, average of three replicates, asterisk denotes fixed Kd"}, "[3]": {"details": "25 °C, 50 mM Hepes pH 7.0, one-site binding model, average of three replicates, polysaccharides: based on concentration of binding sites"}},
  "note": "Several values for one entry are separate records, joined by “and”; a condition that tells them apart may be missing. Identical values can stand only once. Entries after “also recorded” stand apart in the source; their conditions may differ. Like-named read-outs stand apart in the source and are kept apart here.",
  "data": [
    {"molecule": "OC[C@H]1O[C@H](O[C@H]2[C@H](O)[C@@H](O)[C@@H](O[C@H]3[C@H](O)[C@@H](O)[C@@H](O[C@H]4[C@H](O)[C@@H](O)[C@@H](O[C@H]5[C@H](O)[C@@H](O)[C@@H](O[C@H]6[C@H](O)[C@@H](O)[C@@H](O[C@H]7[C@H](O)[C@@H](O)C(O)O[C@@H]7CO)O[C@@H]6CO)O[C@@H]5CO)O[C@@H]4CO)O[C@@H]3CO)O[C@@H]2CO)[C@H](O)[C@@H](O)[C@@H]1O", "note": "(some centres unmarked) [Maltoheptaose, maltoheptaose]", "values": [
      {"measurement": "Kd", "setting": "Sas20d1 Y60A", "result": "8.29 ± 0.51", "unit": "µM"},
      {"measurement": "Kd (μM)", "setting": "Sas20d1 Y60A", "result": "binds"},
      {"measurement": "Kd (μM)", "setting": "Sas20d1 W72A", "result": "did not bind"},
      {"measurement": "fold increase in the Kd compared with WT Sas20d2", "setting": "Sas20d2 W329A", "result": "~100", "unit": "fold"},
      {"measurement": "Kd", "setting": "Sas20d2 W329A; [1]", "result": "90.8 ± 25.7", "unit": "µM"},
      {"measurement": "fold increase in the Kd compared with WT Sas20d2", "setting": "Sas20d2 W375A", "result": "~100", "unit": "fold"},
      {"measurement": "Kd", "setting": "Sas20d2 W375A; [1]", "result": "88.1 ± 36", "unit": "µM"},
      {"measurement": "fold increase in the Kd compared with WT Sas20d2", "setting": "Sas20d2 W440A", "result": "~100", "unit": "fold"},
      {"measurement": "Kd", "setting": "Sas20d2 W440A; [1]", "result": "90 ± 7.72", "unit": "µM"},
      {"measurement": "Kd (μM)", "setting": "Sas20d2 W481A", "result": "eliminated binding"},
      {"measurement": "Kd", "setting": "Sas20d1; Kd (μM)", "result": "≤ 20 µM and 1.5 µM and 1.53 µM"},
      {"measurement": "N (binding sites)", "setting": "Sas20d1", "result": "0.89 ± 0.38"},
      {"measurement": "fold lower Kd for maltoheptaose over maltotriose", "setting": "Sas20d2", "result": "~1500", "unit": "×"},
      {"measurement": "N (binding sites)", "setting": "Sas20d2", "result": "1.15 ± 0.15"},
      {"measurement": "Kd", "setting": "Sca5X25-2", "result": "0.21 ± 0.029", "unit": "µM"},
      {"measurement": "N (binding sites)", "setting": "Sca5X25-2; ITC, one-site binding model", "result": "0.81 ± 0.09"},
      {"measurement": "Kd (μM)", "setting": "Sca5X25-2a", "result": "failed to bind"},
      {"measurement": "Kd (μM)", "setting": "Sca5X25-2b", "result": "failed to bind"},
      {"measurement": "fold decrease in binding versus full-length Sas20d1", "setting": "Sas20d1tr", "result": "~100", "unit": "fold"},
      {"measurement": "Kd", "setting": "Sas20d1tr; [2]", "result": "155 ± 63", "unit": "µM"},
      {"measurement": "N (binding sites)", "setting": "Sas20d1tr; one-site binding model", "result": "1.45 ± 0.27"}
    ]},
    {"molecule": "soluble starch", "values": [
      {"measurement": "Kd", "setting": "Sas20d1", "result": "≤ 20", "unit": "µM"},
      {"measurement": "Kd", "setting": "Sas20d2; [3]", "result": "≤ 20", "unit": "µM"}
    ]},
    {"molecule": "OC[C@H]1O[C@H](O[C@H]2[C@H](O)[C@@H](O)[C@@H](O[C@H]3[C@H](O)[C@@H](O)C(O)O[C@@H]3CO)O[C@@H]2CO)[C@H](O)[C@@H](O)[C@@H]1O", "note": "(some centres unmarked) [Maltotriose, maltotriose]", "values": [
      {"measurement": "Kd (μM)", "setting": "Sas20d1 W72A", "result": "did not bind"},
      {"measurement": "Kd (μM)", "setting": "Sas20d2 W329A; [1]", "result": "loss of binding"},
      {"measurement": "Kd (μM)", "setting": "Sas20d2 W375A; [1]", "result": "loss of binding"},
      {"measurement": "Kd (μM)", "setting": "Sas20d2 W440A; [1]", "result": "loss of binding"},
      {"measurement": "Kd (μM)", "setting": "Sas20d2 W481A", "result": "eliminated binding"},
      {"measurement": "N (binding sites)", "setting": "Sas20d2", "result": "1.18 ± 0.05"}
    ]},
    {"molecule": "OC[C@H]1O[C@@H]2O[C@H]3[C@H](O)[C@@H](O)[C@@H](O[C@H]4[C@H](O)[C@@H](O)[C@@H](O[C@H]5[C@H](O)[C@@H](O)[C@@H](O[C@H]6[C@H](O)[C@@H](O)[C@@H](O[C@H]7[C@H](O)[C@@H](O)[C@@H](O[C@H]8[C@H](O)[C@@H](O)[C@@H](O[C@H]1[C@H](O)[C@H]2O)O[C@@H]8CO)O[C@@H]7CO)O[C@@H]6CO)O[C@@H]5CO)O[C@@H]4CO)O[C@@H]3CO", "note": "[β-Cyclodextrin, β-cyclodextrin]", "values": [
      {"measurement": "Kd (μM)", "setting": "Sas20d1", "result": "failed to bind"},
      {"measurement": "Kd (μM)", "setting": "Sas20d2; [3]", "result": "weak binding"},
      {"measurement": "N (binding sites)", "setting": "Sas20d2", "result": "0.98 ± 0.09"},
      {"measurement": "Kd", "setting": "Sca5X25-2", "result": "346 ± 78.8", "unit": "µM"},
      {"measurement": "N (binding sites)", "setting": "Sca5X25-2; ITC, one-site binding model", "result": "0.958 ± 0.01"},
      {"measurement": "Kd", "setting": "Sas20d1tr; Kd", "result": "> 1000", "unit": "µM"},
      {"measurement": "Kd", "setting": "Sas20d1tr; [2]", "result": "1050 ± 168", "unit": "µM"}
    ]},
    {"molecule": "O=[N+]([O-])c1ccc(OC2OC(CO)C(OC3OC(CO)C(OC4OC(CO)C(OC5OC(CO)C(OC6OC(CO)C(OC7OC(CO)C(OC8OC9COC(c%10ccccc%10)OC9C(O)C8O)C(O)C7O)C(O)C6O)C(O)C5O)C(O)C4O)C(O)C3O)C(O)C2O)cc1", "note": "(centres unmarked) [B-PNP-M7, benzylidene-blocked para-nitrophenyl maltoheptaoside]", "values": [
      {"measurement": "Kd", "setting": "Sas20d1", "result": "7.12 ± 1.53", "unit": "µM"},
      {"measurement": "N (binding sites)", "setting": "Sas20d1", "result": "1.28 ± 0.29"}
    ]},
    {"molecule": "O=[N+]([O-])c1ccc(O[C@H]2O[C@H](CO)[C@@H](O[C@H]3O[C@H](CO)[C@@H](O[C@H]4O[C@H](CO)[C@@H](O[C@H]5O[C@H](CO)[C@@H](O[C@H]6O[C@H](CO)[C@@H](OC7OC(CO)C(O)C(O)C7O)[C@H](O)[C@H]6O)[C@H](O)[C@H]5O)[C@H](O)[C@H]4O)[C@H](O)[C@H]3O)[C@H](O)[C@H]2O)cc1", "note": "(stereo partly drawn) [PNP-M6, PNP-α-maltohexaose]", "values": [
      {"measurement": "Kd", "setting": "Sas20d1", "result": "0.87 ± 0.48", "unit": "µM"},
      {"measurement": "N (binding sites)", "setting": "Sas20d1", "result": "1.15 ± 0.07"}
    ]},
    {"molecule": "OC[C@H]1O[C@@H]2O[C@H]3[C@H](O)[C@@H](O)[C@@H](O[C@H]4[C@H](O)[C@@H](O)[C@@H](O[C@H]5[C@H](O)[C@@H](O)[C@@H](O[C@H]6[C@H](O)[C@@H](O)[C@@H](O[C@H]7[C@H](O)[C@@H](O)[C@@H](O[C@H]1[C@H](O)[C@H]2O)O[C@@H]7CO)O[C@@H]6CO)O[C@@H]5CO)O[C@@H]4CO)O[C@@H]3CO", "note": "[α-Cyclodextrin, α-cyclodextrin]", "values": [
      {"measurement": "Kd (μM)", "setting": "Sas20d1", "result": "failed to bind"},
      {"measurement": "Kd (μM)", "setting": "Sas20d2; [3]", "result": "Neither Sas20d2 nor Sca5X25-2 bound; also recorded: failed to bind"},
      {"measurement": "Kd (μM)", "setting": "Sca5X25-2; ITC, 25 °C, one-site binding model, average of three replicates", "result": "Neither Sas20d2 nor Sca5X25-2 bound"},
      {"measurement": "Kd", "setting": "Sas20d1tr", "result": "> 1000", "unit": "µM"}
    ]}
  ]
}
